Laboratory results from patent US8653099B2, “Cold menthol receptor antagonists” (Janssen Pharmaceutica, priority 2008, dated 2014).
“And” between values parts separate entries of the source, which are not always exact repeats. Equal entries are not always repeated.

What was measured:
canine TRPM8 = molecular target: T1, canine TRPM8 (Canis lupus familiaris, UniProt Q1A7N1); test: In vitro canine TRPM8 functional assay (icilin-induced Ca2+ fluorescence, FLIPR/FDSS); format: cell-based; details: for inhibition at 0.5 µM: HEK293, 0.5 μM compound; for IC50: HEK293 cells stably expressing canine TRPM8, icilin at approx. 80% maximal response, eight-point dose-response; for inhibition at 1 µM: HEK293, 1 μM compound; for inhibition at 0.2 µM: HEK293, 0.2 μM compound
T1 construct: expressed in transfected cells
Method: The functional activity of compounds of the formula (I) was determined by measuring changes in intracellular calcium concentration using a Ca^2+-sensitive fluorescent dye. The changes in fluorescent signal were monitored by a fluorescence plate reader, either a FLIPR™ (Molecular Devices) or FDSS (Hamamatsu).
HEK293 cells stably expressing canine TRPM8 were routinely grown as monolayers in Dulbecco's minimum essential medium supplemented with 10% FBS, 2 mM L-glutamine, 100 units/mL penicillin, 100 ug/mL streptomycin and 400 μg/mL G418. Cells were maintained in 5% CO2 at 37° C. At 24 hrs prior to assay, cells were seeded in black wall, clear-base poly-D-lysine coated 384-well plates (BD Biosciences, NJ, USA) at a density of 5,000 cells per well in culture medium and grown overnight in 5% CO2 at 37° C. On assay day, growth media was removed and cells were loaded with Calcium 3 Dye (Molecular Devices) for 35 min at 37° C., under 5% CO2 and then for 25 min at room temperature and atmosphere. Subsequently, cells were tested for agonist-induced increases in intracellular Ca^2+ levels using FLIPR™ or FDSS. Cells were challenged with compounds of the formula (I) (at varying concentrations) and intracellular Ca^2+ was measured for 5 min prior to the addition of icilin to all wells to achieve a final concentration that produces approximately an 80% maximal response.
Maximal fluorescence intensity (FI) achieved upon addition of icilin was exported from the FLIPR or FDSS software and further analyzed using GraphPad Prism 3.02 (Graph Pad Software Inc., CA, U.S.A.). Basal FI was subtracted prior to normalizing data to percent of maximal response. Curves were generated using the average of quadruplicate wells for each data point, were analyzed using nonlinear regression of either sigmoidal dose response or sigmoidal dose response (variable slope). Finally, the EC50 and IC50 values were calculated with the best-fit dose curve determined by GraphPad Prism.

Sprague-Dawley rats = test: CFA-induced paw radiant heat hypersensitivity; format: in vivo; details: rat, 30 mg/kg PO, 24 h after intraplantar CFA, radiant heat withdrawal latency
Method: Intraplantar injection of complete Freund's adjuvant (CFA) in rodents results in a long-lasting inflammatory reaction, characterized by a pronounced hypersensitivity to both thermal and mechanical stimuli. This hypersensitivity peaks between 24-72 hours following injection and can last for several weeks. To assess whether test compounds of the formula (I) reverse established hypersensitivity, a 100 μL intraplantar injection of CFA (suspended in a 1:1 emulsion of saline and heat-killed Mycobacterium tuberculosis in mineral oil) can be injected into a single hind paw of Sprague-Dawley rats (typically males ranging from 150-350 g). […]
Each rat is placed in a test chamber on a warm glass surface and allowed to acclimate for approximately 10 minutes. […] An initial (baseline) response latency to the thermal stimulus is recorded for each animal prior to the injection of CFA. Twenty-four hours following intraplantar CFA injection, the response latency of the animal to the thermal stimulus is then re-evaluated and compared to the animal's baseline response time. […] Post-compound treatment withdrawal latencies are assessed at fixed time intervals, typically 30, 60 and 120 minutes. The percent reversal (% R) of hypersenstivitiy is calculated according to the following formula: % Reversal=(Treatment Response−CFA Response)/(Baseline Response−CFA Response)×100.

[1] = HEK293 canine TRPM8, icilin challenge

T1 sequence (Q1A7N1 1-1104): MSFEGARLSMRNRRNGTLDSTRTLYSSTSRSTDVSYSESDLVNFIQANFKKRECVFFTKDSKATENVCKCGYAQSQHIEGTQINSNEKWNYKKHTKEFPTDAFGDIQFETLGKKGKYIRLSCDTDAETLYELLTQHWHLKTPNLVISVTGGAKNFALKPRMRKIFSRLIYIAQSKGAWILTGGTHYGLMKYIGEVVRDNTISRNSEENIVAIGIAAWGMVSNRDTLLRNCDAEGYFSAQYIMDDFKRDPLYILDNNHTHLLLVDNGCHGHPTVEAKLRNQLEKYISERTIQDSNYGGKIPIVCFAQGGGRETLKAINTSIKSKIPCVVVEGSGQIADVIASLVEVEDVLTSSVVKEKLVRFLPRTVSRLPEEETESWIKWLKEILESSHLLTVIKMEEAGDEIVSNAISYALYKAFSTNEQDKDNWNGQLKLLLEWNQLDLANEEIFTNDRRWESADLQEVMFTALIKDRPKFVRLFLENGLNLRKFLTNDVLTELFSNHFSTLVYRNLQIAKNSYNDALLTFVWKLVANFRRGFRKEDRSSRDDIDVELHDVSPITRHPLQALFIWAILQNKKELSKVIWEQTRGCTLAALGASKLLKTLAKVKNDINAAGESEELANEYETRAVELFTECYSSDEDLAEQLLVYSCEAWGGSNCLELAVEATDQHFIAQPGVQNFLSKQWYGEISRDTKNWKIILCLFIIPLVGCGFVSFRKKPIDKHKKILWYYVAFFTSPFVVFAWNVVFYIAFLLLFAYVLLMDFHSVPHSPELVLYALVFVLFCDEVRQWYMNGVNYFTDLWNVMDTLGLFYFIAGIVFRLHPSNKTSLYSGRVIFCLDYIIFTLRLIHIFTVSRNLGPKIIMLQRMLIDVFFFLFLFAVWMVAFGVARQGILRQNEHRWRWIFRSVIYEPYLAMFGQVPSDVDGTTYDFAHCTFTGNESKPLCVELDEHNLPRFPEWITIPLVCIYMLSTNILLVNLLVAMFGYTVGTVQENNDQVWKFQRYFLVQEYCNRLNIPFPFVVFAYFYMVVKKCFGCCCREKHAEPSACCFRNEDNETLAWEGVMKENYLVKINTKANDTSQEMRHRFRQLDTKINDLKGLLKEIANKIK

inhibition at 0.5 µM (canine TRPM8; [1]) | IC50 (canine TRPM8) | Compound | further results
 | 0.017 µM | O=C(Nc1cccc2cnccc12)C(Nc1ccccc1)c1ccc(C(F)(F)F)cc1 (single isomer, unassigned) [Cpd 31, N-Isoquinolin-5-yl-2-phenylamino-2-(4-trifluoromethyl-phenyl)-acetamide] | % Inh @ 0.5 μM (canine TRPM8; 0.5 μM compound, HEK293 canine TRPM8, icilin challenge, 0.5 µM): 102.16%
84% | 0.226 µM | O=C(Nc1cccc2[nH]ccc12)C(Nc1ccc(F)cc1)c1ccc(C(F)(F)F)cc1 (stereo not shown) [Cpd 34] | 
99% | 0.073 µM | O=C(Nc1cccc2cnccc12)C(Nc1ccc(F)cc1)c1ccc(C(F)(F)F)cc1 (stereo not shown) [Cpd 35] | 
95% | 0.119 µM | O=C(Nc1cccc2cnccc12)C(Nc1cccc(F)c1)c1ccc(C(F)(F)F)cc1 (stereo not shown) [Cpd 36] | 
94% | 0.217 µM | O=C(Nc1cccc2[nH]ccc12)C(Nc1cccc(F)c1)c1ccc(C(F)(F)F)cc1 (stereo not shown) [Cpd 37] | 
84% | 0.181 µM | O=C(Nc1cccc2[nH]ccc12)C(Nc1ccccc1)c1ccc(Cl)cc1 (stereo not shown) [Cpd 38] | 
93% | 0.158 µM | O=C(Nc1cccc2cnccc12)C(Nc1ccccc1)c1ccc(Cl)cc1 (stereo not shown) [Cpd 39] | 
98% | 0.082 µM | O=C(Nc1cccc2cnccc12)C(Nc1ccccc1F)c1ccc(Br)cc1 (stereo not shown) [Cpd 41] | 
96% | 0.109 µM | O=C(Nc1cccc2cnccc12)C(Nc1ccccc1)c1cccc(C(F)(F)F)c1 (stereo not shown) [Cpd 42] | 
98% | 0.0968 µM | O=C(Nc1cccc2cnccc12)C(Nc1ccccc1F)c1ccc(Cl)cc1 (stereo not shown) [Cpd 44] | 
98% | 0.094 µM | O=C(Nc1cccc2cnccc12)C(Nc1c(F)cccc1F)c1ccc(Cl)cc1 (stereo not shown) [Cpd 48] | 
83% | 0.092 µM | O=C(Nc1cccc2ncccc12)C(Nc1c(F)cccc1F)c1ccc(Cl)cc1 (stereo not shown) [Cpd 49] | 
98% | 0.115 µM | O=C(Nc1cccc2cnccc12)C(Nc1ccc(F)cc1F)c1ccc(C(F)(F)F)cc1 (stereo not shown) [Cpd 50] | 
87% | 0.273 µM | O=C(Nc1cccc2cnccc12)C(Nc1cccc(F)c1F)c1ccc(Cl)cc1 (stereo not shown) [Cpd 51] | 
80% | 0.219 µM | O=C(Nc1cccc2ncccc12)C(Nc1cccc(F)c1F)c1ccc(Cl)cc1 (stereo not shown) [Cpd 52] | 
 | 0.0653 µM | O=C(Nc1cccc2cnccc12)C(Nc1cc(F)ccc1F)c1ccc(Cl)cc1 (stereo not shown) [Cpd 53] | inhibition at 0.2 µM (canine TRPM8; [1]): 90%
 | 0.107 µM | O=C(Nc1cccc2ncccc12)C(Nc1cc(F)ccc1F)c1ccc(Cl)cc1 (stereo not shown) [Cpd 54] | inhibition at 0.2 µM (canine TRPM8; [1]): 77%
 | 0.13 µM | O=C(Nc1cccc2cnccc12)C(Sc1ccccc1)c1ccc(C(F)(F)F)cc1 (stereo not shown) [Cpd 56, N-(Isoquinolin-5-yl)-2-(phenylthio)-2-(4-(trifluoromethyl)phenyl)acetamide] | 

More lines, now with the values behind:

Compound | inhibition at 0.5 µM (canine TRPM8; [1]) | IC50 (canine TRPM8) | further results
O=C(Nc1cccc2cnccc12)C(Nc1ccccc1)c1ccc(C(F)(F)F)cc1 (single isomer, unassigned) [Cpd 30, N-Isoquinolin-5-yl-2-phenylamino-2-(4-trifluoromethyl-phenyl)-acetamide] | 96% | 0.257 µM | 
CC(C)(C)c1ccc(C(Nc2ccccc2)C(=O)Nc2cccc3cnccc23)cc1 (stereo not shown) [Cpd 1] |  | 0.0358 µM | inhibition at 1 µM (canine TRPM8; [1]): 103%
CN(c1ccccc1)C(C(=O)Nc1cccc2cnccc12)c1ccc(C(C)(C)C)cc1 (stereo not shown) [Cpd 3] |  | 0.301 µM | inhibition at 1 µM (canine TRPM8; [1]): 101%
O=C(Nc1cccc2cnccc12)C(Nc1ccccc1)c1ccc(C(F)(F)F)cc1 (stereo not shown) [Cpd 4, N-Isoquinolin-5-yl-2-phenylamino-2-(4-trifluoromethyl-phenyl)-acetamide] | 104% | 0.072 µM and 0.0289 µM | inhibition at 1 µM (canine TRPM8; [1]): 102%
CC(C)(C)c1ccc(C(Nc2ccccc2)C(=O)Nc2cccc3[nH]ncc23)cc1 (stereo not shown) [Cpd 5] |  | 0.118 µM | inhibition at 1 µM (canine TRPM8; [1]): 100%
CC(C)(C)c1ccc(C(Nc2ccccc2)C(=O)Nc2cccc3[nH]ccc23)cc1 (stereo not shown) [Cpd 7] |  | 0.529 µM | inhibition at 1 µM (canine TRPM8; [1]): 100%
CC(C)(C)c1ccc(C(Nc2ccccc2)C(=O)Nc2ccc3cnccc3c2)cc1 (stereo not shown) [Cpd 8] |  | 0.438 µM | inhibition at 1 µM (canine TRPM8; [1]): 97.5%
O=C(NC1CCc2ccccc21)C(Nc1ccccc1)c1ccc(C(F)(F)F)cc1 (stereo not shown) [Cpd 10, N-Indan-1-yl-2-phenylamino-2-(4-trifluoromethyl-phenyl)-acetamide] |  | 0.158 µM | inhibition at 1 µM (canine TRPM8; [1]): 100%
O=C(Nc1cccc2cnccc12)C(Nc1ccccc1Cl)c1ccc(C(F)(F)F)cc1 (stereo not shown) [Cpd 11] | 104% | 0.0891 µM | 
O=C(Nc1cccc2cnccc12)C(Nc1cccc(Cl)c1)c1ccc(C(F)(F)F)cc1 (stereo not shown) [Cpd 12] | 101% | 0.261 µM | 
O=C(Nc1cccc2cnccc12)C(Nc1ccc(Cl)cc1)c1ccc(C(F)(F)F)cc1 (stereo not shown) [Cpd 13] | 86.9% | 0.489 µM | 
O=C(Nc1cccc2cnccc12)C(c1ccc(C(F)(F)F)cc1)N1CCc2ccccc21 (stereo not shown) [Cpd 18, 2-(Indolin-1-yl)-N-(isoquinolin-5-yl)-2-(4-(trifluoromethyl)phenyl)acetamide] | 104% | 0.103 µM | 
O=C(Nc1cccc2cnccc12)C(c1ccc(C(F)(F)F)cc1)N1CCCc2ccccc21 (stereo not shown) [Cpd 19] | 79.7% | 0.586 µM | 
CC(C)(C)c1ccc(C(Nc2ccccc2)C(=O)Nc2cccc3cn[nH]c23)cc1 (stereo not shown) [Cpd 20] | 101% | 0.233 µM | 
COc1ccccc1NC(C(=O)Nc1cccc2cnccc12)c1ccc(C(F)(F)F)cc1 (stereo not shown) [Cpd 21] | 95.3% | 0.287 µM | 
Cc1ccccc1NC(C(=O)Nc1cccc2cnccc12)c1ccc(C(F)(F)F)cc1 (stereo not shown) [Cpd 22] | 104% | 0.0384 µM | 
O=C(Nc1cccc2cnccc12)C(Nc1ccccc1F)c1ccc(C(F)(F)F)cc1 (stereo not shown) [Cpd 24, 2-(2-Fluorophenylamino)-N-(isoquinolin-5-yl)-2-(4-(trifluoromethyl)phenyl)acetamide] | 104% | 0.0549 µM and 0.0443 µM | % Reversal @ 2 h (Sprague-Dawley rats): 28%
Cc1cccc(C)c1NC(C(=O)Nc1cccc2cnccc12)c1ccc(C(F)(F)F)cc1 (stereo not shown) [Cpd 25] | 99% | 0.273 µM | 
O=C(Nc1cccc2[nH]ncc12)C(Nc1ccccc1)c1ccc(C(F)(F)F)cc1 (stereo not shown) [Cpd 27] | 101% | 0.0845 µM | 
O=C(Nc1cccc2cn[nH]c12)C(Nc1ccccc1)c1ccc(C(F)(F)F)cc1 (stereo not shown) [Cpd 28] | 98.3% | 0.161 µM | 
O=C(Nc1cccc2cccnc12)C(Nc1ccccc1)c1ccc(C(F)(F)F)cc1 (stereo not shown) [Cpd 29] | 85.1% | 0.441 µM | 
